2 compounds from publication PMC7182431, “CNGA3 acts as a cold sensor in hypothalamic neurons” (eLife, 2020) can be followed below.

Holding throughout (type): cell-based
For test [1], the target named is T1, CNGA3-CNGB1 heteromers (mCNGA3 with mCNGB1) (Mus musculus, UniProt A0A6H2E2T0+E1AZ71).
T1 construct: full-length subunits co-expressed in Xenopus oocytes from pMO vector; mixture with CNGA3 homomers likely
As to the kind of experiment: voltage clamp, Xenopus oocytes, inhibition of cold-activated current. The note with it: 100 µM extracellular drug, 1 µM intracellular cGMP, -80 mV, cooling; inhibitor; mixed with CNGA3 homomers.

The target in the next test is T2, sqCNGA3 (squirrel CNGA3) (Ictidomys tridecemlineatus, UniProt A0A6H2E3H4).
T2 construct: pMO vector, no tag stated; HEK293T (PIEZO1-deleted) cells, also Xenopus oocytes; homomer
T2 sequence (A0A6H2E3H4 1-672): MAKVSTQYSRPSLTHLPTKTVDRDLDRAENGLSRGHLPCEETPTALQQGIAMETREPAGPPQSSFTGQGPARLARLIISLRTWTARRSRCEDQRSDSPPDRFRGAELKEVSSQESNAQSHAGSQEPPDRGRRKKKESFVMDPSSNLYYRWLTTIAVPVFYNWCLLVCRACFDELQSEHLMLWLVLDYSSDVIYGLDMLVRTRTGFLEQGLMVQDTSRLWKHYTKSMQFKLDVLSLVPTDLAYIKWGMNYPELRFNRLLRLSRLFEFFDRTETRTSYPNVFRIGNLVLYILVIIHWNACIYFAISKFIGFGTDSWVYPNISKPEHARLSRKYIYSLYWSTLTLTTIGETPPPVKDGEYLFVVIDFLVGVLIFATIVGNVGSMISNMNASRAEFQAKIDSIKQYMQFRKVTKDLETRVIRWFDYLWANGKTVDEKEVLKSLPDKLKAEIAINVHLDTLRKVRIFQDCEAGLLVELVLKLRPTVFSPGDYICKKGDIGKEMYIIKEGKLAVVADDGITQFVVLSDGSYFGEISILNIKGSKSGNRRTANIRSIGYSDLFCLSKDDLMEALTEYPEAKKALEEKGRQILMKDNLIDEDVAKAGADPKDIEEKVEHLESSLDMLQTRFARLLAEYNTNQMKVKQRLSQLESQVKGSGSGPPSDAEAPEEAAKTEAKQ
As to the kind of experiment: inside-out patch clamp, HEK293T, Hill fit. On the technique in general: In patch-clamp work, channel activity is measured electrically.

The target of a further test is T3, mCNGA3 (mouse CNGA3) (Mus musculus, UniProt A0A6H2E2T0).
T3 construct: HEK293T (PIEZO1-deleted) cells, also Xenopus oocytes; homomer
T3 sequence (A0A6H2E2T0 1-630): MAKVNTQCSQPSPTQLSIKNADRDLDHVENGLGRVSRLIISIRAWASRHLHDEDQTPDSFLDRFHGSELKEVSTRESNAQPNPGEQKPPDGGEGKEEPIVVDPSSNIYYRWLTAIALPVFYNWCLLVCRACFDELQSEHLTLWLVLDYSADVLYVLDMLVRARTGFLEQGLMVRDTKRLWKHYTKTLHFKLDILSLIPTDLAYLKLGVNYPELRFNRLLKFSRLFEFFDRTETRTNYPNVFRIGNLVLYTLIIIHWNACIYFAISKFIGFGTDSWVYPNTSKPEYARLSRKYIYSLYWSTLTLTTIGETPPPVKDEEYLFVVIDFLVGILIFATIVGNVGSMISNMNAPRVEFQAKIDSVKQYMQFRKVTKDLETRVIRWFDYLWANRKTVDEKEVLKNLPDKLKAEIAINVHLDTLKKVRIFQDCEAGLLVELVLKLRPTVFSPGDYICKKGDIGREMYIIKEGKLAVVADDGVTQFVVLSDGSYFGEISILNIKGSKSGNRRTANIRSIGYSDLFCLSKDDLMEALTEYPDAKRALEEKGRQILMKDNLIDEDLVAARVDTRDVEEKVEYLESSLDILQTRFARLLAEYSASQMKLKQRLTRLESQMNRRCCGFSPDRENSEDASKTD
The test is described as follows: inside-out patch clamp, HEK293T, Hill fit.

T1 sequence (E1AZ71 whole entry, one chain of several): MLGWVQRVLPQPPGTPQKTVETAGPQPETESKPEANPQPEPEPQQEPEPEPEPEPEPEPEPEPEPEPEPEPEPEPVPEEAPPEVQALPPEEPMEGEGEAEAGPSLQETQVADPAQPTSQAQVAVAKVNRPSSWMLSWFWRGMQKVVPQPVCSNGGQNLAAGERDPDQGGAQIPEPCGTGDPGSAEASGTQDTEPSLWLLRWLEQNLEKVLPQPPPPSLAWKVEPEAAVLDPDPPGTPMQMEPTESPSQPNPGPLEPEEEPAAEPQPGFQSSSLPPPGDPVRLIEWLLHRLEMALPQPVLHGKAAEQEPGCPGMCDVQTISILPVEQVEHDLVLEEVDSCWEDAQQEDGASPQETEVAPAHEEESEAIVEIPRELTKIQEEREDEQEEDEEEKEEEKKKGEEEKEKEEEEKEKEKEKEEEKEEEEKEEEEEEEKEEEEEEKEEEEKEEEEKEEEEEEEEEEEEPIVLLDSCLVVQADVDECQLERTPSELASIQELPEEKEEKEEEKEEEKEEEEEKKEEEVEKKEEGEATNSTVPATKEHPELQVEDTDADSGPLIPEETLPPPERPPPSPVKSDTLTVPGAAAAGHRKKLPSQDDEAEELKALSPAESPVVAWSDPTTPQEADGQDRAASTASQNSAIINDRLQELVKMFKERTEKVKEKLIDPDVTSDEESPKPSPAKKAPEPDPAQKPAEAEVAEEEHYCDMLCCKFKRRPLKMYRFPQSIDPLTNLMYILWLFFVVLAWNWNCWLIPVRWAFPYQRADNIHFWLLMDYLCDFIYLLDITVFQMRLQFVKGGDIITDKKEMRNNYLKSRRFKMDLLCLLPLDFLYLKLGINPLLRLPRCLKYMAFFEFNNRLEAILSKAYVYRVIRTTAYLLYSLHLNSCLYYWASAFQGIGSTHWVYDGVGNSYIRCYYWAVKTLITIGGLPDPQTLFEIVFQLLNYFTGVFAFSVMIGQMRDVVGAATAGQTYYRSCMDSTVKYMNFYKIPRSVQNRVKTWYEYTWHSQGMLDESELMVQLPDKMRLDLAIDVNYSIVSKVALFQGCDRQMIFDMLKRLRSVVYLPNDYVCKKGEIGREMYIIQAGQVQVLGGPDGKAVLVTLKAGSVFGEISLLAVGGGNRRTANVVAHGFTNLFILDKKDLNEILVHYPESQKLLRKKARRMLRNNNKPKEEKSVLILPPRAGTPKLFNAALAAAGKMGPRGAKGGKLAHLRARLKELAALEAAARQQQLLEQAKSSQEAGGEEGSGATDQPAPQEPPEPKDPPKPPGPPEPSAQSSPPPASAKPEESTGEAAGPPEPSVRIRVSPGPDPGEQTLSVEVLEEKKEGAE

Turning to `COc1ccc([C@H]2Sc3ccccc3N(CCN(C)C)C(=O)[C@H]2OC(C)=O)cc1` [l-cis-diltiazem], the inhibition entry in test [1] was “CNGA3-CNGB1 heteromers can form a cold-activated l-cis-diltiazem-sensitive ion channel”.
The term EC50 denotes the concentration needed to bring the measured effect to its halfway point. A low value points to an effect from little substance. In the case of `Nc1nc2c(ncn2[C@@H]2O[C@@H]3COP(=O)(O)O[C@H]3[C@H]2O)c(=O)[nH]1` [cGMP], the figures for the EC50 at sqCNGA3 (squirrel CNGA3) and on mCNGA3 (mouse CNGA3) were 26.4 ± 1.12 µM and 21.8 ± 5.48 µM, respectively.
